# How the values were obtained:
# rice flat sedge = experiment: Test Example 3: herbicidal effect by foliage application, Wagner pot (Table 18, symbol E); format: in vivo, rice flat sedge (Cyperus iria)
# Procedure, shortened: (§1)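 Plants were sown in alluvial soil held under 0.1–0.5 cm standing water and grown 14 days in a greenhouse at 25–30 °C. An emulsifiable formulation, water-diluted to the set dose, was then sprayed onto the foliage, and effects were scored three weeks later using previously defined criteria.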
# late watergrass = experiment: Test Example 1: herbicidal activity, application before weed generation under submerged conditions (Table 16, symbol A); format: in vivo, late watergrass (Echinochloa oryzicola)
# Excerpt: (§2) [Test Example 1] Herbicidal Activity Test by Application before Weed Generation under Submerged Conditions After alluvial soil was placed into 1/10000 are of Wagner pot, water was poured and mixed to form a submerged condition having a water depth of 4 cm. Seeds of late watergrass, Japanese bulrush, and oval-leafed pondweed were sowed in a mixed manner in the aforementioned pot, and then 2.5 leaf stage rice plant seedlings were transplanted thereto. On the day of sowing seeds, the emulsion agent of the compound of the present invention prepared according to Formulation Example 2 was diluted with water so as to achieve a predetermined herbicide amount, and the diluted emulsion agent was applied to the surface of the water. The pot was placed in a greenhouse at 25° C. to 30° C. for growth of the plants. Three weeks after the herbicide application, the effect of the herbicide on each plant was evaluated according to the following criteria. Evaluation Criteria 5: Herbicidal rate of 90% or more (almost completely withered) 4: Herbicidal rate of 70% or more and less than 90% 3: Herbicidal rate of 40% or more and less than 70% 2: Herbicidal rate of 20% or more and less than 40% 1: Herbicidal rate of 5% or more and less than 20% 0: Herbicidal rate of 5% or less (almost no effect)
# oval-leafed pondweed = experiment: Test Example 1: herbicidal activity, application before weed generation under submerged conditions (Table 16, symbol C); format: in vivo, oval-leafed pondweed (Monochoria vaginalis)
# Excerpt: as §2
# barnyard grass [1] = experiment: Test Example 3: herbicidal effect by foliage application, Wagner pot (Table 18, symbol H); format: in vivo, barnyard grass (Echinochloa crus-galli)
# Procedure, shortened: as §1
# Chinese sprangletop = experiment: Test Example 3: herbicidal effect by foliage application, Wagner pot (Table 18, symbol D); format: in vivo, chinese sprangletop (Leptochloa chinensis)
# Procedure, shortened: as §1
# Japanese bulrush = experiment: Test Example 1: herbicidal activity, application before weed generation under submerged conditions (Table 16, symbol B); format: in vivo, Japanese bulrush (Schoenoplectus juncoides)
# Excerpt: as §2
# velvetleaf [2] = experiment: Test Example 5: herbicidal effect by foliage application, plastic box (Table 20, symbol M); format: in vivo, velvetleaf (Abutilon theophrasti); settings: foliage application, 320 g/ha, three weeks after application
# Procedure, shortened: (§3)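 Foliar spray test: emulsion formulation diluted in water to a set application rate, sprayed onto 14-day-old plants raised in diluvial soil at 25° C to 30° C under glass. Both herbicidal effect and crop effect rated visually three weeks later.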
# green foxtail [3] = experiment: Test Example 5: herbicidal effect by foliage application, plastic box (Table 20, symbol G); format: in vivo, green foxtail (Setaria viridis); settings: foliage application, 320 g/ha, three weeks after application
# Procedure, shortened: as §3
# wild oat = experiment: Test Example 5: herbicidal effect by foliage application, plastic box (Table 20, symbol I); format: in vivo, wild oat (Avena fatua); settings: foliage application, 320 g/ha, three weeks after application
# Procedure, shortened: as §3
# barnyard grass [4] = experiment: Test Example 5: herbicidal effect by foliage application, plastic box (Table 20, symbol H); format: in vivo, barnyard grass (Echinochloa crus-galli); settings: foliage application, 320 g/ha, three weeks after application
# Procedure, shortened: as §3
# lambsquarters [5] = experiment: Test Example 5: herbicidal effect by foliage application, plastic box (Table 20, symbol O); format: in vivo, lambsquarters (Chenopodium album); settings: foliage application, 320 g/ha, three weeks after application
# Procedure, shortened: as §3
# southern crabgrass [6] = experiment: Test Example 5: herbicidal effect by foliage application, plastic box (Table 20, symbol F); format: in vivo, southern crabgrass (Digitaria ciliaris); settings: foliage application, 320 g/ha, three weeks after application
# Procedure, shortened: as §3
# persian speedwell = experiment: Test Example 5: herbicidal effect by foliage application, plastic box (Table 20, symbol R); format: in vivo, Persian speedwell (Veronica persica); settings: foliage application, 320 g/ha, three weeks after application
# Procedure, shortened: as §3
# blackgrass = experiment: Test Example 5: herbicidal effect by foliage application, plastic box (Table 20, symbol J); format: in vivo, blackgrass (Alopecurus myosuroides); settings: foliage application, 320 g/ha, three weeks after application
# Procedure, shortened: as §3
# Italian ryegrass = experiment: Test Example 5: herbicidal effect by foliage application, plastic box (Table 20, symbol K); format: in vivo, Italian ryegrass (Lolium multiflorum); settings: foliage application, 320 g/ha, three weeks after application
# Procedure, shortened: as §3
# windgrass = experiment: Test Example 5: herbicidal effect by foliage application, plastic box (Table 20, symbol L); format: in vivo, windgrass (Apera spica-venti); settings: foliage application, 320 g/ha, three weeks after application
# Procedure, shortened: as §3
# velvetleaf [7] = experiment: Test Example 4: herbicidal effect by soil treatment (Table 19, symbol M); format: in vivo, velvetleaf (Abutilon theophrasti); settings: amount of applied herbicide 320 g/ha
# Procedure, shortened: (§4)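 Herbicidal effect was rated 3 weeks after treatment, using the scoring criteria of an earlier test. The compound, formulated as an emulsion and diluted in water to a set herbicide amount, had been sprayed uniformly on soil over freshly sown seeds. Growth took place in a greenhouse at 25° C. to 30° C.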
# redroot pigweed = experiment: Test Example 4: herbicidal effect by soil treatment (Table 19, symbol N); format: in vivo, redroot pigweed (Amaranthus retroflexus); settings: amount of applied herbicide 320 g/ha
# Procedure, shortened: as §4
# lambsquarters [8] = experiment: Test Example 4: herbicidal effect by soil treatment (Table 19, symbol O); format: in vivo, lambsquarters (Chenopodium album); settings: amount of applied herbicide 320 g/ha
# Procedure, shortened: as §4
# southern crabgrass [9] = experiment: Test Example 4: herbicidal effect by soil treatment (Table 19, symbol F); format: in vivo, southern crabgrass (Digitaria ciliaris); settings: amount of applied herbicide 320 g/ha
# Procedure, shortened: as §4
# green foxtail [10] = experiment: Test Example 4: herbicidal effect by soil treatment (Table 19, symbol G); format: in vivo, green foxtail (Setaria viridis); settings: amount of applied herbicide 320 g/ha
# Procedure, shortened: as §4
# barnyard grass [11] = experiment: Test Example 4: herbicidal effect by soil treatment (Table 19, symbol H); format: in vivo, barnyard grass (Echinochloa crus-galli); settings: amount of applied herbicide 320 g/ha
# Procedure, shortened: as §4
# [12] = amount of applied herbicide 224 g/ha
# [13] = amount of applied herbicide 320 g/ha
# [14] = amount of applied herbicide 246 g/ha
# [15] = amount of applied herbicide 370 g/ha
smiles,measurement,setting,value
Cc1nn(C)c(=O)c(-c2c(-c3cccc(OCC(F)(F)F)c3)sc3ccc(F)cc23)c1O [2-238],herbicidal effect on E: rice flat sedge,rice flat sedge; [12],3 (Herbicidal rate of 40% or more and less than 70%)
same,Herbicidal effect on A: late watergrass (grade 0-5),late watergrass; 224 g/ha applied herbicide,3 (Herbicidal rate of 40% or more and less than 70%)
same,Herbicidal effect on C: oval-leafed pondweed (grade 0-5),oval-leafed pondweed; 224 g/ha applied herbicide,0 (Herbicidal rate of 5% or less (almost no effect))
same,herbicidal effect on H: barnyard grass,barnyard grass [1]; [12],3 (Herbicidal rate of 40% or more and less than 70%)
same,herbicidal effect on D: Chinese sprangletop,Chinese sprangletop; [12],2 (Herbicidal rate of 20% or more and less than 40%)
same,Herbicidal effect on B: Japanese bulrush (grade 0-5),Japanese bulrush; 224 g/ha applied herbicide,0 (Herbicidal rate of 5% or less (almost no effect))
Cc1nn(C)c(=O)c(-c2c(-c3cc(C(F)(F)F)cc(C(F)(F)F)c3)sc3ccc(F)cc23)c1O [2-358],herbicidal effect on E: rice flat sedge,rice flat sedge; [13],3 (Herbicidal rate of 40% or more and less than 70%)
same,Herbicidal effect on A: late watergrass (grade 0-5),late watergrass; 320 g/ha applied herbicide,3 (Herbicidal rate of 40% or more and less than 70%)
same,Herbicidal effect on C: oval-leafed pondweed (grade 0-5),oval-leafed pondweed; 320 g/ha applied herbicide,0 (Herbicidal rate of 5% or less (almost no effect))
same,herbicidal effect on H: barnyard grass,barnyard grass [1]; [13],3 (Herbicidal rate of 40% or more and less than 70%)
same,herbicidal effect on D: Chinese sprangletop,Chinese sprangletop; [13],1 (Herbicidal rate of 5% or more and less than 20%)
same,Herbicidal effect on B: Japanese bulrush (grade 0-5),Japanese bulrush; 320 g/ha applied herbicide,0 (Herbicidal rate of 5% or less (almost no effect))
COc1cc(F)ccc1-c1sc2ccc(SC)cc2c1-c1c(O)c(C)nn(C)c1=O [2-376],herbicidal effect on E: rice flat sedge,rice flat sedge; [14],3 (Herbicidal rate of 40% or more and less than 70%)
same,Herbicidal effect on A: late watergrass (grade 0-5),late watergrass; 246 g/ha applied herbicide,3 (Herbicidal rate of 40% or more and less than 70%)
same,Herbicidal effect on C: oval-leafed pondweed (grade 0-5),oval-leafed pondweed; 246 g/ha applied herbicide,0 (Herbicidal rate of 5% or less (almost no effect))
same,herbicidal effect on H: barnyard grass,barnyard grass [1]; [14],5 (Herbicidal rate of 90% or more (almost completely withered))
same,herbicidal effect on D: Chinese sprangletop,Chinese sprangletop; [14],3 (Herbicidal rate of 40% or more and less than 70%)
same,Herbicidal effect on B: Japanese bulrush (grade 0-5),Japanese bulrush; 246 g/ha applied herbicide,0 (Herbicidal rate of 5% or less (almost no effect))
COc1cc2sc(-c3ccccc3OC)c(-c3c(O)c(C)nn(C)c3=O)c2cc1Cl [5-068],herbicidal effect on rice flat sedge (E),rice flat sedge; 320 g/ha,1 (Herbicidal rate of 5% or more and less than 20%)
same,"Herbicidal effect, A: late watergrass",late watergrass; [13],0 (Herbicidal rate of 5% or less (almost no effect))
same,herbicidal effect on velvetleaf (M),velvetleaf [2],1 (Herbicidal rate of 5% or more and less than 20%)
same,herbicidal effect on green foxtail (G),green foxtail [3],3 (Herbicidal rate of 40% or more and less than 70%)
same,herbicidal effect on wild oat (I),wild oat,0 (Herbicidal rate of 5% or less (almost no effect))
same,herbicidal effect on barnyard grass (H),barnyard grass [4],3 (Herbicidal rate of 40% or more and less than 70%)
same,herbicidal effect on lambsquarters (O),lambsquarters [5],3 (Herbicidal rate of 40% or more and less than 70%)
same,herbicidal effect on barnyard grass (H),barnyard grass [1]; 320 g/ha,4 (Herbicidal rate of 70% or more and less than 90%)
same,herbicidal effect on southern crabgrass (F),southern crabgrass [6],1 (Herbicidal rate of 5% or more and less than 20%)
same,herbicidal effect on persian speedwell (R),persian speedwell,2 (Herbicidal rate of 20% or more and less than 40%)
same,herbicidal effect on blackgrass (J),blackgrass,0 (Herbicidal rate of 5% or less (almost no effect))
same,herbicidal effect on Chinese sprangletop (D),Chinese sprangletop; 320 g/ha,0 (Herbicidal rate of 5% or less (almost no effect))
same,"Herbicidal effect, B: Japanese bulrush",Japanese bulrush; [13],5 (Herbicidal rate of 90% or more (almost completely withered))
same,herbicidal effect on Italian ryegrass (K),Italian ryegrass,0 (Herbicidal rate of 5% or less (almost no effect))
same,herbicidal effect on windgrass (L),windgrass,0 (Herbicidal rate of 5% or less (almost no effect))
CCCC(=O)Oc1c(C)nn(C)c(=O)c1-c1c(-c2ccccc2OCC)sc2cc(OC)c(-c3ccccc3OCC)cc12 [5-080],herbicidal effect on rice flat sedge (E),rice flat sedge; 370 g/ha,2 (Herbicidal rate of 20% or more and less than 40%)
same,"Herbicidal effect, A: late watergrass",late watergrass; [15],0 (Herbicidal rate of 5% or less (almost no effect))
same,"Herbicidal effect, C: oval-leafed pondweed",oval-leafed pondweed; [15],0 (Herbicidal rate of 5% or less (almost no effect))
same,herbicidal effect on barnyard grass (H),barnyard grass [1]; 370 g/ha,3 (Herbicidal rate of 40% or more and less than 70%)
same,herbicidal effect on Chinese sprangletop (D),Chinese sprangletop; 370 g/ha,3 (Herbicidal rate of 40% or more and less than 70%)
same,"Herbicidal effect, B: Japanese bulrush",Japanese bulrush; [15],3 (Herbicidal rate of 40% or more and less than 70%)
Cc1nn(C)c(=O)c(-c2c(-c3ccc(Cl)cc3)sc3cc(F)c(F)cc23)c1OCc1ccccc1 [5-083],herbicidal effect on rice flat sedge (E),rice flat sedge; 320 g/ha,2 (Herbicidal rate of 20% or more and less than 40%)
same,"Herbicidal effect, A: late watergrass",late watergrass; [13],0 (Herbicidal rate of 5% or less (almost no effect))
same,"Herbicidal effect, C: oval-leafed pondweed",oval-leafed pondweed; [13],0 (Herbicidal rate of 5% or less (almost no effect))
same,herbicidal effect on barnyard grass (H),barnyard grass [1]; 320 g/ha,1 (Herbicidal rate of 5% or more and less than 20%)
same,herbicidal effect on Chinese sprangletop (D),Chinese sprangletop; 320 g/ha,0 (Herbicidal rate of 5% or less (almost no effect))
same,"Herbicidal effect, B: Japanese bulrush",Japanese bulrush; [13],3 (Herbicidal rate of 40% or more and less than 70%)
Cc1nn(C)c(=O)c(-c2c(-c3ccc(OC(F)(F)F)cc3)sc3cc(F)c(F)cc23)c1O [5-105],herbicidal effect on rice flat sedge (E),rice flat sedge; 320 g/ha,0 (Herbicidal rate of 5% or less (almost no effect))
same,"M: velvetleaf, herbicidal effect grade",velvetleaf [7],2 (Herbicidal rate of 20% or more and less than 40%)
same,"Herbicidal effect, A: late watergrass",late watergrass; [13],2 (Herbicidal rate of 20% or more and less than 40%)
same,"N: redroot pigweed, herbicidal effect grade",redroot pigweed,3 (Herbicidal rate of 40% or more and less than 70%)
same,herbicidal effect on velvetleaf (M),velvetleaf [2],4 (Herbicidal rate of 70% or more and less than 90%)
same,"O: lambsquarters, herbicidal effect grade",lambsquarters [8],4 (Herbicidal rate of 70% or more and less than 90%)
same,"F: southern crabgrass, herbicidal effect grade",southern crabgrass [9],0 (Herbicidal rate of 5% or less (almost no effect))
same,herbicidal effect on green foxtail (G),green foxtail [3],5 (Herbicidal rate of 90% or more (almost completely withered))
same,herbicidal effect on barnyard grass (H),barnyard grass [4],5 (Herbicidal rate of 90% or more (almost completely withered))
same,herbicidal effect on lambsquarters (O),lambsquarters [5],5 (Herbicidal rate of 90% or more (almost completely withered))
same,"Herbicidal effect, C: oval-leafed pondweed",oval-leafed pondweed; [13],0 (Herbicidal rate of 5% or less (almost no effect))
same,herbicidal effect on barnyard grass (H),barnyard grass [1]; 320 g/ha,5 (Herbicidal rate of 90% or more (almost completely withered))
same,herbicidal effect on southern crabgrass (F),southern crabgrass [6],4 (Herbicidal rate of 70% or more and less than 90%)
same,"G: green foxtail, herbicidal effect grade",green foxtail [10],0 (Herbicidal rate of 5% or less (almost no effect))
same,herbicidal effect on Chinese sprangletop (D),Chinese sprangletop; 320 g/ha,0 (Herbicidal rate of 5% or less (almost no effect))
same,"Herbicidal effect, B: Japanese bulrush",Japanese bulrush; [13],0 (Herbicidal rate of 5% or less (almost no effect))
same,"H: barnyard grass, herbicidal effect grade",barnyard grass [11],0 (Herbicidal rate of 5% or less (almost no effect))
